This passage reports melting point results from patent US20100227869A1, “ENANTIOPURE QUINUCLIDINYLOXY PYRIDAZINES AND THEIR USE AS NICOTINIC ACETYLCHOLINE RECEPTOR LIGANDS” (priority 2006, published 2010).

In general, melting point refers to the temperature, or range, at which the solid turns liquid. With `C(#Cc1ccc(O[C@H]2CN3CCC2CC3)nn1)c1ccccc1.O=C(O)/C=C/C(=O)O`, the melting point lay in the range of 151.3 to 157.3 °C.

Compound `C(#Cc1ccc(O[C@@H]2CN3CCC2CC3)nn1)c1ccccc1.O=C(O)/C=C/C(=O)O` displayed a melting point of 154.5 to 159.4 °C.
